Structures are written as SMILES.

For assay [1], the target named is T1, PIM-1 (h) (Homo sapiens, UniProt P11309).
T1 construct: purchased Upstate
Put plainly: Upstate kinase panel: PIM-1. It is filed as biochemical. The settings on record: compound 20 μM, 10 μM ATP, read-out: % inhibition at 20 μMol. The method, then: (§1) These kinases are produced by Upstate and screened according to the respective protocols indicated by the supplier (http://www.upstate.com/features/kp_protocols.asp). Examples 1, 12, 166 and 238 were tested at a concentration of 20 μM, 10 μM, 1 μM and 1 μM respectively in the presence of 10 μM of ATP for examples 1 and 12 and at the concentrations of ATP shown in parentheses for examples 166 and 238. The results shown in Table VII correspond to percentage inhibition of the kinase tested in the presence of the compound, relative to a control effected without the compound.

The target in assay [2] is T2, TrkA (h) (Homo sapiens, UniProt P04629).
T2 construct: purchased Upstate
As to the kind of experiment: Upstate kinase panel: TrkA. It is filed as biochemical. The following applies: compound 20 μM, 10 μM ATP, read-out: % inhibition at 20 μMol. The method, then:
as §1

The target of assay [3] is T3, RET (h) (Homo sapiens, UniProt P07949).
T3 construct: purchased Upstate
Put plainly: Upstate kinase panel: RET. It is filed as biochemical. The following applies: compound 20 μM, 10 μM ATP, read-out: % inhibition at 20 μMol. How it is done: as §1

Assay [4] has as its target T4, TrkA (Homo sapiens, UniProt P04629).
T4 construct: purchased Upstate 14-571
Put plainly: Inhibition of kinase TrkA (Kinase-Glo). Type of assay: biochemical. The following applies: TrkA 4 μg/ml, 30 μM ATP, two hours at 30° C. The procedure, abridged:
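TrkA (4 μg/ml) was incubated with 1 mg/ml poly-EY and 30 μM ATP in MOPS pH 7 buffer with Mg acetate, DTT and vanadate, compounds at 10 nM–30 μM final, for 2 h at 30 °C. Remaining ATP was quantified by Kinase-Glo luminescence.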

Assay [5] concerns the target ALK (Homo sapiens, UniProt Q9UM73). Put plainly: Inhibition of kinase ALK (PLCγ1-GST substrate, anti-phosphotyrosine ELISA). It is filed as biochemical. The settings on record: ALK 180 ng/ml, 250 μM ATP, 30 minutes at 30° C. The method, then: Incubation is carried out for 30 minutes at 30° C. with agitation.
The signal is read in luminescent mode using a luminometer.

For assay [6], the target named is T5, TrkB (Homo sapiens, UniProt Q16620).
T5 construct: purchased Upstate 14-507
As to the kind of experiment: Inhibition of kinase TrkB (Kinase-Glo). It is filed as biochemical. The following applies: TrkB 4 μg/ml, 40 μM ATP, two hours at 30° C. In outline: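 TrkB at 4 μg/ml with 2.5 mg/ml poly-EY and 40 μM ATP in MOPS/NaOH pH 7 buffer with MgAc, EDTA, DTT, vanadate and glycerophosphate; compounds at final 10 nM–30 μM. After 2 h at 30°C, remaining ATP measured by Kinase-Glo luminescence.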

For assay [7], the target named is T6, TrkB (h) (Homo sapiens, UniProt Q16620).
T6 construct: purchased Upstate
Put plainly: Upstate kinase panel: TrkB. Type of assay: biochemical. The following applies: compound 10 μM, 10 μM ATP, read-out: % inhibition at 10 μMol. How it is done: as §1

In assay [8] the test system is U251. Put plainly: WST test, inhibition of proliferation of U251. The settings on record: Homo sapiens, U-251, 96 h; line U251, tissue of origin CMS; four days of incubation, WST-1. Type of assay: cell-based. How it is done: (§2) The inhibition of the proliferation of cell lines by certain compounds of the invention was tested. […] In the example, the lines used were derived from cancers of the uterus, central nervous system, colon, stomach, head and neck, lung, breast, pancreas, and kidney, as well as from lymphoma, myeloma, pleura, or from melanoma.
(§3) The WST test for measuring cell proliferation and viability (Roche Applied Science) is based on cleavage of a tetrazolium salt by the mitochondrial dehydrogenases in viable cells.
(§4) After four days of incubation of the compounds with the cell line, 14 μl of WST-1 reagent is added to each well and the plates are incubated for four hours at 37° in humid atmosphere at 5% CO2. The level of formazan formed is then determined by spectrophotometry at 450 nm whereas a reference is measured at 650 nm. A control with untreated cells is represented by six wells per plate and the group of treated cells is produced in triplicate for each of the concentrations measured.
(§5) The compounds are tested at five concentrations between 10 nM and 100 μM and two cytotoxic agents are used as controls: adriamycin and 5-fluorouracil.

Assay [9] concerns the target T7, Rsk2 (h) (Homo sapiens, UniProt P51812).
T7 construct: purchased Upstate
Put plainly: Upstate kinase panel: Rsk2. Type of assay: biochemical. The settings on record: compound 1 μM, ATP (10), read-out: % inhibition at 1 μMol. How it is done: as §1

The test system of assay [10] is SKNAS. As to the kind of experiment: WST test, inhibition of proliferation of SKNAS. It is filed as cell-based. The following applies: Homo sapiens, SK-N-AS, 96 h; line SKNAS, tissue of origin CMS; four days of incubation, WST-1. How it is done:
as §2, §3, §4, §5

The test system of assay [11] is MDA-453. Put plainly: WST test, inhibition of proliferation of MDA-453. The following applies: 96 h; line MDA-453, tissue of origin Breast; four days of incubation, WST-1. Type of assay: cell-based. How it is done:
as §2, §3, §4, §5

Assay [12] deals with SKUT1B. As to the kind of experiment: WST test, inhibition of proliferation of SKUT1B. Type of assay: cell-based. The settings on record: Homo sapiens, 96 h; line SKUT1B, tissue of origin Uterus; four days of incubation, WST-1. How it is done:
as §2, §3, §4, §5

The test system of assay [13] is 536L. As to the kind of experiment: WST test, inhibition of proliferation of 536L. It is filed as cell-based. The settings on record: 96 h; line 536L, tissue of origin Head/neck; four days of incubation, WST-1. The method, then:
as §2, §3, §4, §5

For assay [14], the system named is A172. As to the kind of experiment: WST test, inhibition of proliferation of A172. Type of assay: cell-based. The following applies: Homo sapiens, A 172, 96 h; line A172, tissue of origin CMS; four days of incubation, WST-1. The method, then: as §2, §3, §4, §5
Assay [15] addresses T8, FGFR1 (h) (Homo sapiens, UniProt P11362).
T8 construct: purchased Upstate
As to the kind of experiment: Upstate kinase panel: FGFR1. It is filed as biochemical. The settings on record: compound 1 μM, ATP (200), read-out: % inhibition at 1 μMol. How it is done: as §1

Assay [16] relates to MLCK (h). As to the kind of experiment: Upstate kinase panel: MLCK. The following applies: compound 1 μM, ATP (10). It is filed as biochemical, human. The method, then: as §1

T3 sequence (P07949 29-1114): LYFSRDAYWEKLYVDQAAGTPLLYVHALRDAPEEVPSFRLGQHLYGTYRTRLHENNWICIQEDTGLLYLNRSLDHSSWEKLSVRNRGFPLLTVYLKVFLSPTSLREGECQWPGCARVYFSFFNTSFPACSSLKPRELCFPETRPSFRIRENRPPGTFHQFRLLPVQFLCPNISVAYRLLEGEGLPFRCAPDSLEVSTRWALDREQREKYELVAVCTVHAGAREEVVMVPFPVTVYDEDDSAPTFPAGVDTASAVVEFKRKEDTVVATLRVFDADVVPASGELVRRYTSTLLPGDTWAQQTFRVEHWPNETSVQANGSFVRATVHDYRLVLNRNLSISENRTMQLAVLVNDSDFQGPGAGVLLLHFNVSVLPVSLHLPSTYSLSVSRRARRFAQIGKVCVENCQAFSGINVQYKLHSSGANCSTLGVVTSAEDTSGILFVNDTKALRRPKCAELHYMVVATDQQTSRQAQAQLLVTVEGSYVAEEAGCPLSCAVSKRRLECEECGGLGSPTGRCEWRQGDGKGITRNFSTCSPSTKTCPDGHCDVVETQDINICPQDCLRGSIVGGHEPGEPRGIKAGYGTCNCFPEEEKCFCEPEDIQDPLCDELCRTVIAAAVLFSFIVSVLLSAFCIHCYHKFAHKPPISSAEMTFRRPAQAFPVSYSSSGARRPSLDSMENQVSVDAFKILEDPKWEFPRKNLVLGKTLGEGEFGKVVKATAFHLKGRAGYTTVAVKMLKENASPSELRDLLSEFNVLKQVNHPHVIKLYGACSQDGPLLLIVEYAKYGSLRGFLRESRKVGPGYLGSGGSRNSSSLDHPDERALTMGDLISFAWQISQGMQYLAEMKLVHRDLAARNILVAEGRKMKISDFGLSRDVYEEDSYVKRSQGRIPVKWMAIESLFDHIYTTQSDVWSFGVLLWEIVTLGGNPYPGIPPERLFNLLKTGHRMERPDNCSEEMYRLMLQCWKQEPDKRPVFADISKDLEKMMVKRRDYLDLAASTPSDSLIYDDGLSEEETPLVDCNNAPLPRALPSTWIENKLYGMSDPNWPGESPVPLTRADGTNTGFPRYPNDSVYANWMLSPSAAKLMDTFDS
T1 sequence (P11309 whole entry): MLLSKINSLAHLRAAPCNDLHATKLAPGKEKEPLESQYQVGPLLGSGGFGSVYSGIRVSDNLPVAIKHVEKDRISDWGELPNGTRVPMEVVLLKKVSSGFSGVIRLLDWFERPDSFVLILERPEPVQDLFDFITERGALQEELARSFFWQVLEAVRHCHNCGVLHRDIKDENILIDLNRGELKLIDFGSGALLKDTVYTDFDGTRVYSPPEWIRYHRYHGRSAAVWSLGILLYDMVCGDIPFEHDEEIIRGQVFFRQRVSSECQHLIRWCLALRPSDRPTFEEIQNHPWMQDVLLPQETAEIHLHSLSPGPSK
T8 sequence (P11362 22-822): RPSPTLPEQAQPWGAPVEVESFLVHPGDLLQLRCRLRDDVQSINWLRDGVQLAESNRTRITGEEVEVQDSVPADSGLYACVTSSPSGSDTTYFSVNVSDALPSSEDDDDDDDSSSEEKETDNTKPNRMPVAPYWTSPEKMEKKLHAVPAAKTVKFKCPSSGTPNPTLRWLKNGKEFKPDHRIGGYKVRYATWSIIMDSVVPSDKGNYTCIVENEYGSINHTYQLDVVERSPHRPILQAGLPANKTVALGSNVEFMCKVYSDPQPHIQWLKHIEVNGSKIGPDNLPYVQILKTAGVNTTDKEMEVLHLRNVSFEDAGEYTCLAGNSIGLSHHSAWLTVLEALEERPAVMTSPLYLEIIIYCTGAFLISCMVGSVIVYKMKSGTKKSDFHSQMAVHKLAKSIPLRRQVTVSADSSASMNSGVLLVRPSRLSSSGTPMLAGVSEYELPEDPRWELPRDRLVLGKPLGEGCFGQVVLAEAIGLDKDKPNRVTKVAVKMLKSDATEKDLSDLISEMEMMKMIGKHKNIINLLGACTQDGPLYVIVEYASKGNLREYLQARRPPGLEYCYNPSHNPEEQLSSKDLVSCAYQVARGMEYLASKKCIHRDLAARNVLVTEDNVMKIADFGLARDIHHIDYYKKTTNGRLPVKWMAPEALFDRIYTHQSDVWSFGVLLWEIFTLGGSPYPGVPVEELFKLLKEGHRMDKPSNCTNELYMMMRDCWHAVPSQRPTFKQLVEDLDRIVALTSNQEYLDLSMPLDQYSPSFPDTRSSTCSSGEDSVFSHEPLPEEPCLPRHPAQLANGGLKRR
T7 sequence (P51812 whole entry): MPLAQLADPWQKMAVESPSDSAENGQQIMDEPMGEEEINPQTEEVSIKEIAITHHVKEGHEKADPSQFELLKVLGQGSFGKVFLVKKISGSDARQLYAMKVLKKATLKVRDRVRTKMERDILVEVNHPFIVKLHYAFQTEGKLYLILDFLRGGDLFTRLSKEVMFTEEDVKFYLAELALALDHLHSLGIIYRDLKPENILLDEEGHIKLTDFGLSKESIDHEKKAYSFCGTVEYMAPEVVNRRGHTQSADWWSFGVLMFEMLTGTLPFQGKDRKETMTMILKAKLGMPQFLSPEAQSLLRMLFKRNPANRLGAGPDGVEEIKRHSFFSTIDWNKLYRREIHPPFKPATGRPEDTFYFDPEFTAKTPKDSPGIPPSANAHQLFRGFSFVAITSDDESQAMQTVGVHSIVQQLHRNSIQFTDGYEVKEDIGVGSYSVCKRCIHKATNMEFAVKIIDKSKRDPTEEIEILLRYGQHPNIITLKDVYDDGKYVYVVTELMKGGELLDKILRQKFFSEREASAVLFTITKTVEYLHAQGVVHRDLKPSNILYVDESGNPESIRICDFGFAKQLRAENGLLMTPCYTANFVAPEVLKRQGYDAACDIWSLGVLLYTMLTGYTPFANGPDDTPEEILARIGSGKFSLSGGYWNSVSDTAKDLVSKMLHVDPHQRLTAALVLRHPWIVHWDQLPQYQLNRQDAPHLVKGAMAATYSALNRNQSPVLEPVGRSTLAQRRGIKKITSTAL
T5 sequence (Q16620 32-822): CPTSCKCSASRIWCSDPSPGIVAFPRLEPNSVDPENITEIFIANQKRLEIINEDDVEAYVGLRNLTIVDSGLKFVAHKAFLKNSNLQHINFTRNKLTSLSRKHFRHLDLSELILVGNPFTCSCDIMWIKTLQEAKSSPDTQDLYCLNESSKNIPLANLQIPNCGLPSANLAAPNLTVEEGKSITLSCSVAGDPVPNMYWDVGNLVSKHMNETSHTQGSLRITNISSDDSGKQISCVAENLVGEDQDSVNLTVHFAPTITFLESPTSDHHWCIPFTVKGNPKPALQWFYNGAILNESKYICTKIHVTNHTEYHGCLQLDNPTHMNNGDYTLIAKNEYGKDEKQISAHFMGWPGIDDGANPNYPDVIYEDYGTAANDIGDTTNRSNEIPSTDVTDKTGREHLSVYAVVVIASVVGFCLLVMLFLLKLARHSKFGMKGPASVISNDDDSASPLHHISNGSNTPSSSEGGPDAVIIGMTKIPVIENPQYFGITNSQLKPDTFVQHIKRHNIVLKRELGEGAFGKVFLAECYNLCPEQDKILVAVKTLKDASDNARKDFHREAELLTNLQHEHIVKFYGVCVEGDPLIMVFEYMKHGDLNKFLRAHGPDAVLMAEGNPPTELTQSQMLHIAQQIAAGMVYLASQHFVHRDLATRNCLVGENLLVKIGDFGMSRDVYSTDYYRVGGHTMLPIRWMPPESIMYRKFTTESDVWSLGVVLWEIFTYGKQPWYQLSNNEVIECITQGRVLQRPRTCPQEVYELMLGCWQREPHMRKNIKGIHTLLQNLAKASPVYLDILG
T6 sequence (Q16620 32-822): as above
T2 sequence (P04629 33-796): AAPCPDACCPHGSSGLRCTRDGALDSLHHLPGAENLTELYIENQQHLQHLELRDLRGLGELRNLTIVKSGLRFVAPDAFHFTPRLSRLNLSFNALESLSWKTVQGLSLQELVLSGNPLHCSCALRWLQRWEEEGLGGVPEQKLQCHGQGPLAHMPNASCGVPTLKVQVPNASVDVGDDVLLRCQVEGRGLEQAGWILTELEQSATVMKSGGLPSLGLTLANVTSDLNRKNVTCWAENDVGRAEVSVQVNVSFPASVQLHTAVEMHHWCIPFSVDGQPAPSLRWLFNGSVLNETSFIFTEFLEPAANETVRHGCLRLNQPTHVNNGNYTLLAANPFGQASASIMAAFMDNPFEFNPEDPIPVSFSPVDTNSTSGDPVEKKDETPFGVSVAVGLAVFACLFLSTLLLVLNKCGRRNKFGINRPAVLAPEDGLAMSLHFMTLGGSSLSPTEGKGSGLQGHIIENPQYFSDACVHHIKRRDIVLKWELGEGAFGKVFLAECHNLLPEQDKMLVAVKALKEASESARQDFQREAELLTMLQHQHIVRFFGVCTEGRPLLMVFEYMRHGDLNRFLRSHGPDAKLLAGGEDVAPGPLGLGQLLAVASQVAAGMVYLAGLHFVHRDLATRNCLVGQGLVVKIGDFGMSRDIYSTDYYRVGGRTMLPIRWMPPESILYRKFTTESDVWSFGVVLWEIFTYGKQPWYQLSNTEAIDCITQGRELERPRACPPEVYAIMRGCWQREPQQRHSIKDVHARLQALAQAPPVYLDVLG
T4 sequence (P04629 33-796): as above

Regarding `CCOC(=O)c1c[nH]c2c(=O)[nH]c3ccccc3c12` [Compound 1, 4-Oxo-4,5-dihydro-3H-pyrrolo[2,3-c]quinoline-1-ethyl carboxylate], the inhibition at 20 µM worked out at 92% in [1], 97% in [2] and 99% in assay [3].
As to `CCOC(=O)c1c[nH]c2c(=O)[nH]c3ccc(S(=O)(=O)Nc4ccc(F)cc4)cc3c12` [Compound 12, 8-(4-Fluorophenylsulfamoyl)-4-oxo-4,5-dihydro-3H-pyrrolo[2,3-c]quinoline-1-ethyl carboxylate], the IC50 lay within 1 to 10 µM in assay [4], 0.1 to 1 µM in [5] and 1 to 10 µM in assay [6]. Moreover, in assay [7], the inhibition at 10 µM was determined as 98%.
As to `CCOC(=O)c1c[nH]c2c(=O)[nH]c3ccc(-c4cccc(S(C)(=O)=O)c4)cc3c12` [Compound 238, 8-(3-Methanesulfonyl-phenyl)-4-oxo-4,5-dihydro-3H-pyrrolo[2,3-c]quinoline-1-ethyl carboxylate], the IC50 in assay [8] was 33 µM; in assay [10] it was 12 µM; in [11], 7 µM; in assay [12], 33 µM; in assay [13] it was 36 µM; in assay [14], 13 µM. Besides, the inhibition at 1 µM was found to be 25% in [9] and 51% in assay [15]. For the same compound, the “% inhibition at 1 μMol” value in assay [16] is on record as 21%.

The values are drawn from patent US8426437B2, “Pyrroloquinoline derivatives and their use as protein kinases inhibitors” (Pierre Fabre Medicament, priority 2005, dated 2013).
